From article PMC7714403 (JCI Insight, 2020)
Where two headings read alike, the source gives them in different places.

How the values were obtained:
[1] = test system: dermal fibroblasts; experiment: MTT viability assay, normal cells; type: cell-based, human; conditions: 2 donors, 72 h
Procedure: Cell viability of primary samples
HS5-GFP human bone marrow stromal cells were plated and cultured for 72 hours to near confluence.
MOLM13 cells were then seeded onto HS5-GFP cells to establish a co-culture. Twenty-four hours later, cells were treated with increasing concentrations of drug for an additional 72 hours. MOLM13 and HS5-GFP cells were then separated and MTT assay s were performed for cell viability assessment of each cell population.
For murine or human primary AML cells, 100,000 cells/well were plated in a 96-well plate and treated with increasing concentrations of drug. Cell viability, via trypan blue, was measured every 24 hours. If the viability fell below 50% or at 72 hours of treatment, whichever came earlier, cell viability of each plate was measured via CellTiter-Glo. Primary human AML cells were obtained from the OSUCCC Leukemia Tissue Bank Shared […]
For primary human fibroblasts, cells were plated at 10,000 cells/well in a 96-well plate and cultured for 24 hours. After 24 hours, cells were treated with drug for 72 hours. A MTT assay was performed to assess cell […]
Primary AML samples were analyzed by targeted gene sequencing of 80 genes, as previously described (1). Samples were pooled and analyzed on a MiSeq system using the Illuminia MiSeq Reagent Kit v3. Ill umina Isis Banded Smith Waterman aligner and hg19 genome were used to align the sequences. […]

[2] = test system: KSR1, KSR2; experiment: KiNativ, OCI cells live cell; type: cell-based, human; conditions: labeling site Activation Loop, peptide SKNVFYDNGK
[3] = molecular target: T1, JAK1 domain2 (Homo sapiens, UniProt P23458); experiment: KiNativ, OCI cells live cell; type: cell-based
T1 construct: JAK1 domain2

[4] = molecular target: T2, LATS2 (Homo sapiens, UniProt Q9NRM7); experiment: KiNativ, MOLM13 live cells; type: cell-based; conditions: 100 nM, 2 hours
T2 sequence (Q9NRM7 1-1088): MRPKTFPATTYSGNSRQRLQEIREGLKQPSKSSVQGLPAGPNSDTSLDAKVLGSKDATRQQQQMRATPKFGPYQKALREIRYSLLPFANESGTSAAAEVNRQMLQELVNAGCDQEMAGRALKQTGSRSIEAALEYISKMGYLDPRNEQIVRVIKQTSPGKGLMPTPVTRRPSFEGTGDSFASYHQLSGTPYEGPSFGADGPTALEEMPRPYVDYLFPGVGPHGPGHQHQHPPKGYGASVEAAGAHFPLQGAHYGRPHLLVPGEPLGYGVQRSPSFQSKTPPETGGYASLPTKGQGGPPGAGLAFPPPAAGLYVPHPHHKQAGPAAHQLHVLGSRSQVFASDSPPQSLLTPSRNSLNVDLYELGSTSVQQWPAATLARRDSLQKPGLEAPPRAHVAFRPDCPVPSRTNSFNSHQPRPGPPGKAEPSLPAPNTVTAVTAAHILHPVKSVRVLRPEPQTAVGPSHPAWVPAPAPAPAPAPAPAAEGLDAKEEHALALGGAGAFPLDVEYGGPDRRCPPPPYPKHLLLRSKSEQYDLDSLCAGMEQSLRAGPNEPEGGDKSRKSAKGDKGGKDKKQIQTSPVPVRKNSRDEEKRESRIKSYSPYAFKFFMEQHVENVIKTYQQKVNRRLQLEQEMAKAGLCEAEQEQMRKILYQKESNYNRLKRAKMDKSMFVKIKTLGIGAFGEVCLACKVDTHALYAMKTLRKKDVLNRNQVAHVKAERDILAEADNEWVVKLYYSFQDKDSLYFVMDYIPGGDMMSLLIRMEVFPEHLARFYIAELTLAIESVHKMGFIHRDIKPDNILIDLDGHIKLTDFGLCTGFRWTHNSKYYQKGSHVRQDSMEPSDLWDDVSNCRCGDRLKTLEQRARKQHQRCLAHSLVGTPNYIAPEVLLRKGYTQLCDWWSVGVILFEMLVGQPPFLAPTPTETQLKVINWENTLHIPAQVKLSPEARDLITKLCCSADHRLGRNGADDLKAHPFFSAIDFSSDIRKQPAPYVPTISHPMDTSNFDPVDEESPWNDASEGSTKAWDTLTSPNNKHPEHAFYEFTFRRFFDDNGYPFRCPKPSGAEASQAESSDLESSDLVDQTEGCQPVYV
Procedure: (§1) Samples were analyzed by KiNativ in situ kinase profiling by ActivX Biosciences.

[5] = molecular target: T3, MLKL (Homo sapiens, UniProt Q8NB16); experiment: KiNativ, MOLM13 live cells; type: cell-based; conditions: MOLM-13, 2 h, 100 nM
T3 sequence (Q8NB16 1-471): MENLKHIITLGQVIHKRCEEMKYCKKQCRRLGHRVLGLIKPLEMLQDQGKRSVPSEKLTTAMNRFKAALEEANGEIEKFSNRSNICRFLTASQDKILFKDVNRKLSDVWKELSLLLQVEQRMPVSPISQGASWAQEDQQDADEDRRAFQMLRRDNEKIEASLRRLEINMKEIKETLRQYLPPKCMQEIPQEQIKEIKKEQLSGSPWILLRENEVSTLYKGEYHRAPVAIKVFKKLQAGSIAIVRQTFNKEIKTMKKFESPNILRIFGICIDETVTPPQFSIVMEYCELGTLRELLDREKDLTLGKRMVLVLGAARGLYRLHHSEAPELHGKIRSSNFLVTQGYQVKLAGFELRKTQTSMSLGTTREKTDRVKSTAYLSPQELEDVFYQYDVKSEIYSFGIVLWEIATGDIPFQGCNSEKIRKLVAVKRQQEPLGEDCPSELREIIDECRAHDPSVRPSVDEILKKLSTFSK
Procedure: as §1

[6] = molecular target: NDR1 (Homo sapiens, UniProt Q15208); experiment: KiNativ, MOLM13 live cells; type: cell-based; conditions: MOLM-13, 2 h, 100 nM
Procedure: as §1

[7] = molecular target: FER (Homo sapiens, UniProt P16591); experiment: KiNativ, OCI cells live cell; type: cell-based; conditions: 2 h, labeling site Activation Loop, peptide […]
[8] = molecular target: Erk1 (Homo sapiens, UniProt P27361); experiment: KiNativ, OCI cells live cell; type: cell-based; conditions: 2 h, labeling site Lys2, peptide […]
[9] = Lys1, read-out: Inhibition vs DMSO

T1 sequence (P23458 whole entry, the tested form may be a part): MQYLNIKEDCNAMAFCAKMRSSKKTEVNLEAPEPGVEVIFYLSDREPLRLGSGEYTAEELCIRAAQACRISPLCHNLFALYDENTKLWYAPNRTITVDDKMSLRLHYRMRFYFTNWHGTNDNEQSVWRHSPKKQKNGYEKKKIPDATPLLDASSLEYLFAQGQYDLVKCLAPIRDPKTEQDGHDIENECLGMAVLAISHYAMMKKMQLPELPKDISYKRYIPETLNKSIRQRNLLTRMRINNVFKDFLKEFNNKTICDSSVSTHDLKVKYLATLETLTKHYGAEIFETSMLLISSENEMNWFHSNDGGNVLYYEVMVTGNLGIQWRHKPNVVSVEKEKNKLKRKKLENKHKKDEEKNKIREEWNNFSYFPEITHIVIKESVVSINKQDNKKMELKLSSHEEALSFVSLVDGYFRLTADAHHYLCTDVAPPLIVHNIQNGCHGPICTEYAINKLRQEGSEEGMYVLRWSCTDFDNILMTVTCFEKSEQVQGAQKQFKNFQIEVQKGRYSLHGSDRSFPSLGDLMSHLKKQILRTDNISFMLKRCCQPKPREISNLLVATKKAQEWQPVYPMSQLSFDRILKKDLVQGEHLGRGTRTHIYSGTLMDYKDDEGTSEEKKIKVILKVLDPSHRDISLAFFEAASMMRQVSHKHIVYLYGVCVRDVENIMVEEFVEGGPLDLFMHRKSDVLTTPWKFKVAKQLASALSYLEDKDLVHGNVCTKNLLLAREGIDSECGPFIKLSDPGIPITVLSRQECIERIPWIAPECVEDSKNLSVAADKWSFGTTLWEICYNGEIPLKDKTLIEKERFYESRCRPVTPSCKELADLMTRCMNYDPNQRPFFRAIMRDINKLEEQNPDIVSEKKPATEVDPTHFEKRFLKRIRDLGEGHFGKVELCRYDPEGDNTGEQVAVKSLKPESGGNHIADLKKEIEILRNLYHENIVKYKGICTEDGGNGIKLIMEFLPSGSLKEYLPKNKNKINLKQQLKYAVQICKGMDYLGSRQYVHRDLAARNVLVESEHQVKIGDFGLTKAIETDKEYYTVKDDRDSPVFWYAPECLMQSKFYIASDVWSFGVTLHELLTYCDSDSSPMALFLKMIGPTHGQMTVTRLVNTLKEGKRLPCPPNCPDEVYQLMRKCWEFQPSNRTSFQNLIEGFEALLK
NDR1, sequence (Q15208 whole entry): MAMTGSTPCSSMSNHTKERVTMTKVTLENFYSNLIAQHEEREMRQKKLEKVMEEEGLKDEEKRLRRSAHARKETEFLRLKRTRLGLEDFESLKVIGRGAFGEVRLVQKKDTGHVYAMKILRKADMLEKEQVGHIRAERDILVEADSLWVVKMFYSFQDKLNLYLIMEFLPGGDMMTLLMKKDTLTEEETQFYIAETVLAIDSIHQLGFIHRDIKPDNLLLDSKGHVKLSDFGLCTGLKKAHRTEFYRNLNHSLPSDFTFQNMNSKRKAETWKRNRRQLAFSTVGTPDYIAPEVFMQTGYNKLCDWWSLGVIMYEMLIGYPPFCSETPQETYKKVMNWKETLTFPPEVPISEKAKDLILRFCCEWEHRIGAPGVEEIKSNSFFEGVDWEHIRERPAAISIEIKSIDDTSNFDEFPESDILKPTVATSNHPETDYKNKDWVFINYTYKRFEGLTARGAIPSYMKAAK
Erk1, sequence (P27361 whole entry): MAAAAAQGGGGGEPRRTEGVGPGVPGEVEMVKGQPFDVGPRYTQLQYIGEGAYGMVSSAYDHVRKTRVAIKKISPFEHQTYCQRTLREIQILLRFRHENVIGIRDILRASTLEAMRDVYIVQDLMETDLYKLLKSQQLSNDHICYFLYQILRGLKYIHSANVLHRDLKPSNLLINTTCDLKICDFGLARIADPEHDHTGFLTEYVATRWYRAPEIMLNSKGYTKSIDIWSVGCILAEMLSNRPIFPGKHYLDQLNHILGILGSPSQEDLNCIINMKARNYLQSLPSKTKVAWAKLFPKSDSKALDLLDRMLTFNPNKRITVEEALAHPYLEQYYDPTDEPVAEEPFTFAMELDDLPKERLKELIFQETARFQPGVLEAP
FER, sequence (P16591 whole entry): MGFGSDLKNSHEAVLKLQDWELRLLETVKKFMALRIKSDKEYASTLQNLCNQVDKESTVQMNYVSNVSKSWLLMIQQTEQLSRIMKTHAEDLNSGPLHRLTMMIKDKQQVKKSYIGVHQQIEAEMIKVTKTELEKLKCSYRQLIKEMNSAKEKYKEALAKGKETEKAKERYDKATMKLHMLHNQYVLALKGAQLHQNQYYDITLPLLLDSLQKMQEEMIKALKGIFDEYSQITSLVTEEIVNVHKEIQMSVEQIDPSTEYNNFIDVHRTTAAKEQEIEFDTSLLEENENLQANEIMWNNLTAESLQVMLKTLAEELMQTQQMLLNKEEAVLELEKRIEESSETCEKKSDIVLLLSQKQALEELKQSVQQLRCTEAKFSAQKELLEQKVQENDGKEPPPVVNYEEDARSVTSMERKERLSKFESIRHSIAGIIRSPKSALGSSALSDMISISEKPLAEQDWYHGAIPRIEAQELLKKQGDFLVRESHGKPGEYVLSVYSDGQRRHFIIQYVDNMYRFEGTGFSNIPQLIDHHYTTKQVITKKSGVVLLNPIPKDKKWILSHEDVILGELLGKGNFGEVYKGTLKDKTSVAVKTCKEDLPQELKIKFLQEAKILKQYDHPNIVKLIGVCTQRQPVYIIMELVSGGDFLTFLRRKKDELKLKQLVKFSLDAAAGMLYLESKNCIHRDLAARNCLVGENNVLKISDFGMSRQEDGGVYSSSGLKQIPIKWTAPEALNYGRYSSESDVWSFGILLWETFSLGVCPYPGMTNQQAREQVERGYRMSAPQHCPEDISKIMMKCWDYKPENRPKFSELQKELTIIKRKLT

`CN1CCN(Cc2ccc(Nc3ncc(Cl)c(Nc4ccccc4S(=O)(=O)N(C)C)n3)cc2)CC1` [TP-0903] was tested, and the “Concentrations inhibiting viability of fibroblasts” value [1] was no less than 250 nM, the Inhibition [2] was -3.1% and the Inhibition ([3]; labeling site Activation Loop, peptide IGDFGLTKAIETDKEYYTVK) was -56.4%. The Inhibition ([3]; labeling site Lys1, peptide YDPEGDNTGEQVAVKSLKPESGGNHIADLKK) was -85.5%, the “Inhibition vs DMSO” value ([4]; Lys1) was 7.9% and the “Inhibition vs DMSO” value ([4]; Lys2) was -14.6%. The inhibition at 0.1 µM ([5]; Activation Loop, read-out: Inhibition vs DMSO) was -29%, the inhibition at 0.1 µM [5, 9] was -26.9% and the inhibition at 0.1 µM ([5]; Protein Kinase Domain, read-out: Inhibition vs DMSO) was -65.7%. The inhibition at 0.1 µM [6, 9] was 3.7%, the inhibition at 0.1 µM ([6]; Lys2, read-out: Inhibition vs DMSO) was -11.4% and the inhibition at 0.1 µM [7] was 70.2%. For the same molecule, the inhibition at 0.1 µM [8] was 17.7%.
